According to US6376510B1, “Neuromuscular relaxants” (Newlaxant LLC, priority 1997, dated 2002):
Where two headings read alike, the source gives them in different places.

Columns and labels:
[1] = system: anesthetized juvenile pigs; test: animal or person; type: in vivo; conditions: pig; for ED50: intravenous dose causing 50% neuromuscular block; for RI (recovery index): spontaneous recovery, 25-75% neuromuscular response; for Onset: time to 80-85% neuromuscular block
Excerpt: Both electromyographic and mechanomyographic responses can be quantified.
The techniques described under a) and b) were employed in other species as needed with the modification that juvenile pigs were initially anesthetized with inhalation of halothane (Table 5) and monkeys were initially sedated with intramuscular ketamine injections prior to inducing and maintaining general anesthesia using pentobarbital and propofol administered intravenously (Table 6).

[2] = system: anesthetized rats (evoked responses of anterior tibial muscle); test: In vivo neuromuscular block and cardiovascular side effects, anesthetized rat (Example 8, Table 3); conditions: for RI (recovery index): spontaneous recovery, 25-75% neuromuscular response; for Onset: time to 80-85% neuromuscular block
Excerpt: The neuromuscular blocking activity and other effects (e.g. cardiovascular side effects) of selected agents were investigated on several different experimental animals. Justification for this approach lies in the commonly known fact that the pharmacodynamic and pharmacokinetic properties of these agents are markedly variable from species to species. Therefore, the most important aspects of the projected therapeutic utility of these agents, e.g., neuromuscular blocking potency, onset and duration of action, and side effects cannot be ascertained in “in vitro” preparations or by using only one species of animals.
a) Adult, male albino rats were anesthetized with pentobarbital injected intraperitoneally. The trachea was cannulated for artificial respiration via a small animal respirator. The carotid artery was cannulated for recording blood pressure via a transducer and heart rate by a cardiotachograph on a polygraph. One external jugular vein was cannulated for i.v. drug administration. Neuromuscular function was monitored by electromyography, recording evoked responses from the anterior tibial muscle as a result of supramaximal nerve stimuli consisting of single or “train-of-four” rectangular pulses of 0.1-0.2 msec duration every 10-12 seconds, delivered to the sciatic or common peroneal nerve by a laboratory nerve stimulator. Another mode of stimulation included repeated single stimuli delivered at 0.1 Hz or 1 Hz. […] The agents were dissolved in physiologic saline and injected intravenously at appropriate time intervals. The intensity, onset, and duration of neuromuscular block and its type were determined with each agent. Through administering several doses, the doses corresponding to 50%, 80% and 90% neuromuscular block were determined. All agents were compared with selected standard neuromuscular blocking compounds, e.g. succinylcholine, pancuronium, mivacurium, or rocuronium.
Onset=time in minutes to 80-85% neuromuscular block.
RI=recovery index, minutes, spontaneous recovery, 25-75% neuromuscular response.
VB=vagal block, %, at 80-85% neuromuscular blocking dose.
ΔHR=change in heart rate, %, at 80-85% neuromuscular blocking dose.
ΔBP=change in arterial blood pressure, %, at 80-85% neuromuscular blocking dose.

rabbits = test: In vivo neuromuscular block and cardiovascular side effects, rabbit (Example 8, Table 7); conditions: for ED50: intravenous dose causing 50% neuromuscular block; for RI (recovery index): spontaneous recovery, 25-75% neuromuscular response; for Onset: time to 80-85% neuromuscular block
[3] = at 80-85% neuromuscular blocking dose
[4] = rat, at 80-85% neuromuscular blocking dose
[5] = Oryctolagus cuniculus, read-out: ED50
[6] = rat, intravenous dose causing 50% neuromuscular block

VB (vagal block) ([1]; in vivo) [%]	Structure (SMILES)	ED50 ([1]; Sus scrofa, read-out: ED50) [mg/kg]	VB (vagal block) [1, 3] [%]	ΔBP (change in arterial blood pressure) [1, 3] [%]	RI (recovery index) [1] [min]	Onset [1] [min]	VB (vagal block) [2, 4] [%]	ΔBP (change in arterial blood pressure) [2, 4] [%]	ΔH (change in heart rate) [2, 4] [%]	RI (recovery index) ([2]; rat) [min]	Onset ([2]; rat) [min]	RI (recovery index) (rabbits) [min]	Onset (rabbits) [min]	ΔBP (change in arterial blood pressure) ([1]; in vivo) [%]	ΔH (change in heart rate) ([1]; in vivo) [%]	ED50 [1] [mg/kg]	ED50 [2, 6] [mg/kg]	ΔBP (change in arterial blood pressure) (rabbits; in vivo) [%]	ΔH (change in heart rate) (rabbits; in vivo) [%]	ED50 (rabbits) [mg/kg]	other results
	CCC(=O)Oc1c(OC)cc(C[N+]2(C)[C@@H]3CC[C@H]2C[C@@H](OC(=O)C2CCCC(C(=O)O[C@H]4C[C@H]5CC[C@@H](C4)[N+]5(C)Cc4cc(OC)c(OC(=O)CC)c(OC)c4)C2)C3)cc1OC.[Br-].[Br-] (stereo partly drawn) [bis[N-(3,5-dimethoxy-4-propionyloxybenzyl)tropanium-3α-yl]cyclohexane-1,3-dicarboxylate dibromide]	0.25	30	0	1.3	0.7	0	0	0	0.45	0.55	0.4	0.45								ΔH (change in heart rate) [1, 3]: 0%; ED50 ([2]; Rattus norvegicus, iv): 0.27 mg/kg; ED50 (rabbits; [5]): 0.4 mg/kg; ΔBP (change in arterial blood pressure) (rabbits; [3]): 0%; ΔH (change in heart rate) (rabbits; [3]): 0%
35	CCC(=O)Oc1ccc(C[N+]2(C)C3CCCC2CC(OC(=O)CCCC(=O)OC2CC4CCCC(C2)[N+]4(C)Cc2ccc(OC(=O)CC)c(OC(=O)CC)c2)C3)cc1OC(=O)CC.[Br-].[Br-] (centres unmarked) [bis[N-(3,4-dipropionyloxybenzyl)granataninium-3-yl]glutarate dibromide]				0.65	0.5				0.4	0.55	0.55	0.7	0	0	0.23	0.26	0	0	0.135	VB (vagal block) ([2]; rat, in vivo): 0%; ΔBP (change in arterial blood pressure) ([2]; rat, in vivo): 0%; ΔH (change in heart rate) ([2]; rat, in vivo): 0%
	CCC(=O)Oc1ccc(C[N+]2(C)[C@@H]3CC[C@H]2C[C@@H](OC(=O)CCCCC(=O)O[C@H]2C[C@H]4CC[C@@H](C2)[N+]4(C)Cc2ccc(OC(=O)CC)c(OC(=O)CC)c2)C3)cc1OC(=O)CC.[Br-].[Br-] (stereo partly drawn) [bis[N-(3,4-dipropionyloxybenzyl)tropanium-3α-yl]adipate dibromide]	0.3	65	0	0.75	0.65	18	0	0	0.4	0.6	0.65	0.9								ΔH (change in heart rate) [1, 3]: 0%; ED50 ([2]; Rattus norvegicus, iv): 0.217 mg/kg; ED50 (rabbits; [5]): 0.075 mg/kg; ΔBP (change in arterial blood pressure) (rabbits; [3]): 0%; ΔH (change in heart rate) (rabbits; [3]): 0%
43	CCC(=O)Oc1ccc(C[N+]2(C)C3CCCC2CC(OC(=O)CCCCC(=O)OC2CC4CCCC(C2)[N+]4(C)Cc2ccc(OC(=O)CC)c(OC(=O)CC)c2)C3)cc1OC(=O)CC.[Br-].[Br-] (centres unmarked) [bis[N-(3,4-dipropionyloxybenzyl)granataninium-3-yl]adipate dibromide]				0.4	0.45				0.35	0.4	0.5	0.5	0	0	0.275	0.32	0	0	0.16	VB (vagal block) ([2]; rat, in vivo): 0%; ΔBP (change in arterial blood pressure) ([2]; rat, in vivo): −4%; ΔH (change in heart rate) ([2]; rat, in vivo): 0%
	COc1cc(C[N+]2(C)[C@@H]3CC[C@H]2C[C@@H](OC(=O)CCCCCCCCCC(=O)O[C@H]2C[C@H]4CC[C@@H](C2)[N+]4(C)Cc2cc(OC)c(OC(C)=O)c(OC)c2)C3)cc(OC)c1OC(C)=O.[Br-].[Br-] (stereo partly drawn) [bis[N-(4-acetoxy-3,5-dimethoxybenzyl)tropanium-3α-yl]1,9-nonanedicarboxylate dibromide]	0.6	90	0	1.2	0.5	99	0	0	0.5	0.4	0.35	0.35								ΔH (change in heart rate) [1, 3]: 0%; ED50 ([2]; Rattus norvegicus, iv): 0.5 mg/kg; ED50 (rabbits; [5]): 0.5 mg/kg; ΔBP (change in arterial blood pressure) (rabbits; [3]): 0%; ΔH (change in heart rate) (rabbits; [3]): 0%
18	CCC(=O)Oc1ccc(C[N+]2(C)C3CCCC2CC(OC(=O)C2CCC2C(=O)OC2CC4CCCC(C2)[N+]4(C)Cc2ccc(OC(=O)CC)c(OC(=O)CC)c2)C3)cc1OC(=O)CC.[Br-].[Br-] (centres unmarked) [bis[N-(3,4-dipropionyloxybenzyl)granataninium-3-yl]cyclobutane-1,2-dicarboxylate dibromide]				0.4	0.5				0.35	0.45	0.5	0.55	0	0	0.19	0.155	0	0	0.225	VB (vagal block) ([2]; rat, in vivo): 0%; ΔBP (change in arterial blood pressure) ([2]; rat, in vivo): 0%; ΔH (change in heart rate) ([2]; rat, in vivo): 0%

Structure (SMILES)	VB (vagal block) ([1]; in vivo) [%]	ED50 ([1]; Sus scrofa, read-out: ED50) [mg/kg]	VB (vagal block) [1, 3] [%]	ΔBP (change in arterial blood pressure) [1, 3] [%]	RI (recovery index) [1] [min]	Onset [1] [min]	VB (vagal block) [2, 4] [%]	ΔBP (change in arterial blood pressure) [2, 4] [%]	ΔH (change in heart rate) [2, 4] [%]	RI (recovery index) ([2]; rat) [min]	Onset ([2]; rat) [min]	RI (recovery index) (rabbits) [min]	Onset (rabbits) [min]	ΔBP (change in arterial blood pressure) ([1]; in vivo) [%]	ΔH (change in heart rate) ([1]; in vivo) [%]	ED50 [1] [mg/kg]	ED50 [2, 6] [mg/kg]	ΔBP (change in arterial blood pressure) (rabbits; in vivo) [%]	ΔH (change in heart rate) (rabbits; in vivo) [%]	ED50 (rabbits) [mg/kg]	other results
COc1cc(C[N+]2(C)C3CCC2CC(OC(=O)C2C4C=CC(C4)C2C(=O)OC2CC4CCC(C2)[N+]4(C)Cc2cc(OC)c(OC(C)=O)c(OC)c2)C3)cc(OC)c1OC(C)=O.[Br-].[Br-] (stereo not drawn) [bis[N-(4-acetoxy-3,5-dimethoxybenzyl)tropanium-3α-yl]trans-3,6-endomethylene-1,2,3,6-tetrahydrophthalate dibromide]	26				2	0.54	20	0	0	0.8	0.7	0.45	0.45	0	0	0.343	0.2	0	0	0.145	
